Laboratory results taken from ChEMBL document CHEMBL4742385 (2019).

Experiments:
[1] = biological target: Cyclin-C/Cyclin-dependent kinase 19 (Homo sapiens) (UniProt Q9BWU1+P24863); assay: Inhibition of humanGST-tagged CDK19/Cyc C expressed in Sf21 cells at 1 uM measured after 1 hr by fluorescence plate reader relative to control
RPMI-8226 = assay: Antiproliferative activity against human RPMI-8226 assessed as inhibition of cell growth at 1 uM after 8 days measured after Celltiter-Glo assay relative to control; type: functional; settings: Homo sapiens, RPMI-8226, 192 h, time 8 day
SW480 = assay: Antitumor activity against human SW480 cells xenografted in BALB/c nude mouse assessed as inhibition of tumor growth at 50 mg/kg, po administered once daily measured after 14 days relative to control; type: functional; settings: time 14 day
[2] = biological target: CDK8/Cyclin C (Homo sapiens) (UniProt P49336+P24863); assay: Inhibition of human CDK8/Cyc C expressed in Sf21 cells at 1 uM measured after 1 hr by fluorescence plate reader relative to control

SMILES	inhibition [1] [%]	inhibition [2] [%]	inhibition at 1 µM (RPMI-8226) [%]	T/C (SW480) [%]
O=C(/C=C/c1cnccc1-c1cnn(C2CC2)c1)Nc1ccc(CN2CCOCC2)cc1	102	92	53	37
O=C(/C=C/c1cnccc1-c1cnn(C2CC2)c1)Nc1ccc(CN2CC(F)(F)C2)cc1			58	51
Cn1cc(-c2ccncc2/C=C/C(=O)Nc2ccc3c(c2)CN(CC(F)(F)F)CC3)cn1	100	102	59	43
CC(=O)N(C)Cc1cc(NC(=O)/C=C/c2cnccc2-c2cnn(C)c2)ccc1C	93	95	49	
Cn1cc(-c2ccncc2/C=C/C(=O)Nc2ccc(CNC3CC(F)(F)C3)cc2)cn1	97	96	63	
C[C@@H]1CN(Cc2ccc(NC(=O)/C=C/c3cnccc3-c3cnn(C)c3)cc2)C[C@H](C)O1	97	101	58	
COc1ccc(-c2ccncc2/C=C/C(=O)Nc2ccc(CN3CCOCC3)cc2)s1	96	93	58	
Cn1cc(-c2ccncc2/C=C/C(=O)Nc2ccc(N3CCOCC3)c(Cl)c2)cn1	100	102	60	
Cn1cc(-c2ccncc2/C=C/C(=O)Nc2ccc(CN3CCOCC3)c(O)c2)cn1	99	97	54	
Cn1cc(-c2ccncc2/C=C/C(=O)Nc2ccc(CN3CCCC3CO)cc2)cn1 (configuration not stated)	93	104	52	

Continued, in another order:

inhibition [1] [%]	inhibition [2] [%]	SMILES	inhibition at 1 µM (RPMI-8226) [%]	T/C (SW480) [%]
99	99	O=C(/C=C/c1cnccc1-c1cnn(C2CC2)c1)Nc1ccc(CN2CCOCC2)cc1F	53	36
96	101	O=C(/C=C/c1cncc(F)c1-c1cnn(C2CC2)c1)Nc1ccc(CN2CCOCC2)cc1F	64	36
100	104	O=C(/C=C/c1cncc(F)c1-c1cnn(C2CC2)c1)Nc1ccc2c(c1)CN(CC(F)(F)F)C2	58	29
102	98	Cn1cc(-c2ccncc2/C=C/C(=O)Nc2ccc3c(c2)CN(CC(F)(F)F)C3)cn1	64	31
102	103	Cn1cc(-c2c(F)cncc2/C=C/C(=O)Nc2ccc(CN3CC(F)(F)C3)cc2)cn1	65	36
97	102	CC1CN(Cc2ccc(NC(=O)/C=C/c3cnccc3-c3cnn(C4CC4)c3)cc2)C1	55	
93	98	Cn1cc(-c2ccncc2/C=C/C(=O)Nc2ccc3cc[nH]c3c2)cn1	54	
